Measured values as given in ChEMBL document CHEMBL3507680, “University of Dundee, Gates Library screen for HepG2 cell viability”.

Assay: Human HepG2 cell viability assay in 384 well format
Assay type: toxicity, cell-based
Set-up: dose 125 nL, time 70.5 hour; concentration not given beside the values
Details: HepG2 cells, read-out: Inhibition

SMILES | cytotoxicity at 70.5 h
O=S(=O)(Cc1c(F)cccc1F)NCCOc1cccnc1 | 17.9%
COCCNC(=O)c1ccc2ccc(N3CCN(CC4CC4)CC3)n2c1 | 24.5%
CN(C)CCN(Cc1cccc(C(F)(F)F)c1)C(=O)c1cc[nH]n1 | -3.41%
CC(C)c1ccsc1C(=O)N1CCCN(Cc2cscn2)CC1 | 15.1%
O=C(c1ccccc1-c1nc[nH]n1)N1CCOC(C(F)(F)F)C1 (configuration not stated) | -2.49%
O=C(C1CC1)N1CCN(C(=O)CSc2ccccn2)[C@H]2CS(=O)(=O)C[C@H]21 | 24%
Oc1ccc(-c2c(-c3ccccc3)ncn2C[C@H]2CCCN2)cc1 | -2.17%
N#Cc1ccc(C(=O)N2CCC3(CC2)CC3)cc1 | 4.59%
COc1cccc(C(CO)NC(=O)Cc2cccc(C)c2)c1 (configuration not stated) | -4.94%
Cc1cc(N(C)C)cc(C2CCN(S(=O)(=O)c3cccs3)C2)n1 (configuration not stated) | 14.4%
O=C(NCCNS(=O)(=O)c1ccc(C(F)(F)F)cc1)c1ccoc1 | -6.84%
O=C(NCc1ccoc1)Nc1cc(C(F)(F)F)c[nH]c1=O | 1.11%
Cc1ccc(CNc2n[nH]c(C)n2)cc1 | -10.9%
CC(C)[C@H]1CN(c2ccncc2)C[C@@H]1NS(=O)(=O)N(C)C | -4.27%
COc1c(F)cc(NCC(=O)NC(C)(C#N)C2CC2)cc1F (configuration not stated) | -0.61%
CC(C)c1nnc2n1CCN(c1nc3ccccc3o1)C2 | -10.1%
CCC1CN(C)c2ccccc2CN1CCn1cncn1 (configuration not stated) | -9.88%
CNC(=O)CC1CCN(C(=O)NCc2coc3ccccc23)CC1 | 7.31%
COc1cccc(OCCN2CC[C@@](O)(C3CCOCC3)[C@H](C)C2)c1 | 1.27%
Cc1ccc(CN2CCc3c(COC(C)C)nn(C)c3C2)s1 | -9.08%
O=S1(=O)COCCN1CCCOc1ccc(F)cc1 | 22.1%
Cc1cc(Nc2nc(C)cs2)nc(C2CCCCN2CCO)n1 (configuration not stated) | 32.4%
Cc1nc(-c2cn(CCN)nn2)n(-c2ccc(C(F)(F)F)cc2)n1 | 5.79%

SMILES | cytotoxicity at 70.5 h
Cc1ccc(CN2CCOC(C)(c3cnn(C)c3)C2)cc1 (configuration not stated) | -2.83%
CCCN1CCC(NCc2cccc(CN3CCOC(C)C3)c2)CC1 (configuration not stated) | 27.7%
O=C(NCC1CC1)[C@H]1C[C@@H]2CN(S(=O)(=O)Cc3ccccc3)C[C@H]1O2 | 18.9%
CCC(OC)C(=O)NCc1cc2n(n1)CCCN(C1CCCCC1)C2 (configuration not stated) | -9.86%
O=C(Nc1cccnc1)[C@@H]1COC[C@H]2CN(C3CCCC3)C[C@H]21 | -124%
COc1cccc(CN2CCC(c3nccn3C(C)C)CC2)c1 | -13.1%
CC(C)[C@H](CO)Nc1nccc(-c2c[nH]nc2-c2ccncc2)n1 | -3.12%
O=C(Cc1ccccn1)N1CCC2(CC1)[C@H](O)C[C@@H]2O | -12.4%
CCCc1nc(N2CCCC(C)C2)c2c(n1)c(C)nn2CC (configuration not stated) | -4%
O=C(c1ccc[nH]1)N1C[C@H]2CN(Cc3cccc(F)c3)C(=O)[C@H]2C1 | -0.293%
COCCN1CCC(c2cncc(N(C)C)n2)CC1 | 16.5%
CCc1c(O)nc(SC(C)CC)n(-c2ccccc2)c1=O (configuration not stated) | -7.78%
Cc1cscc1-c1nc(C2CCOC2)no1 (configuration not stated) | -5.31%
Cc1ccn(-c2cncc(C(N)=O)c2)n1 | -14.4%
O=C([C@H]1COC[C@H]2CN(C3CCCC3)C[C@H]21)N1CCCO1 | 41.4%
Cc1cc(C(=O)N2C[C@@H]3COC[C@]3(CN(C)C)C2)c(C)o1 | -17.3%
Cc1nnc(CN(C)S(=O)(=O)c2ccc(Br)cc2Cl)n1C | -8.93%
Cc1ccccc1C(=O)N1CC[C@@H](N2CCC(O)CC2)[C@H](O)C1 | -1.6%
CC(C)n1[nH]c(=O)c2c1NC(=O)CC2C1CCCCC1 (configuration not stated) | 4.13%
Cc1ccc(N2CCCC(NCc3nnc4n3CCCC4)C2=O)cc1 (configuration not stated) | -10.2%
CCN(Cc1ccc(N(C)C)cc1)S(=O)(=O)c1cc(Br)ccc1OC | -1.59%
COC(=O)c1ccc(CNC(=O)Cc2csc(C(C)=O)c2)cc1 | 4.17%
CCCNCc1ncc(C)c(OC)c1C | -6.98%

SMILES | cytotoxicity at 70.5 h
Cc1cc(NC(=O)CN2CCN(c3nccs3)C(C)C2)no1 (configuration not stated) | -8.11%
CS(=O)(=O)NC1CCCN(Cc2ccccn2)C1 (configuration not stated) | -1.75%
Cc1nc(C2CCCN(C(=O)c3ccco3)C2)no1 (configuration not stated) | 24%
O=C(NCCn1ccnc1)N1CCCC1c1ccncc1 (configuration not stated) | 1.26%
CC(C)c1nn(C)c(N(C)C)c1CNCCC(=O)NC1CCCC1 | 26.8%
Cc1nnc(CN(Cc2cccc(Br)c2)C2CC2)o1 | -8.25%
Cc1ccc(NC(=O)c2ccc(CC3CC(=O)NC3=O)cc2)cc1O (configuration not stated) | -2.83%
CC(C)c1ccc(C(C)NC(=O)N2CCC(n3cncn3)CC2)cc1 (configuration not stated) | -13.4%
O=C(N[C@@H]1CCN(c2ncc(Cl)cc2Cl)C[C@H]1O)c1cnccn1 | -2.1%
COc1ccc2c(CN3CCCN(Cc4ccncc4)CC3)n[nH]c2c1 | -1.17%
Cc1cccc2cc(CO)c(N3Cc4cnc(C(C)(C)C)nc4C3)nc12 | 7.83%
c1cncc(OC[C@@H]2CC[C@H]3[C@H](CCN3Cc3cccs3)O2)c1 | -4.43%
COCC(=O)N1C[C@@H](c2cccc(OC)c2)[C@@]2(CCCCC(=O)N2)C1 | -10.3%
CC(=O)NC(C)(C)c1noc(C2(C#N)CCCCC2)n1 | -3.45%
O=C(CN1CCCS1(=O)=O)Nc1ccc(OC2CCCC2)cc1 | -0.244%
Cc1cc(N2CCN(C(=O)Cc3c(C)nc(C)[nH]c3=O)CC2)cc(C)n1 | 18.5%
Cc1ccccc1-c1cc(NC(=O)NC2CC2)n(CCO)n1 | 1.97%
CCS(=O)(=O)N1Cc2nccn2CC(Cn2nc(C)nc2C)C1 (configuration not stated) | -13.6%
Cc1ccccc1CSc1nc(N)cc(N2C[C@H](O)[C@@H](N(C)C)C2)n1 | -2.01%
N#Cc1cccnc1NCc1ccc(S(=O)(=O)NC2CC2)cc1 | -17.8%
O=C(NCCc1ccccc1)N1CC[C@@H]2CNS(=O)(=O)[C@@H]2CC1 | 0.679%
CS(=O)(=O)N1CCN(C(=O)c2[nH]c3ccc(Cl)cc3c2Cl)CC1 | -6.15%
CCn1cc(CNCCNc2ncc(Cl)cc2Cl)cn1 | 10.4%

SMILES | cytotoxicity at 70.5 h
O=C(Cn1cccn1)N1CCC(Oc2cnccn2)CC1 | -6.46%
CN(C)C1Cc2ccccc2N(S(=O)(=O)c2ccc(C#N)cc2)C1 (configuration not stated) | -7.27%
COCc1ccc(C(=O)N2CCN(CC3CC3)[C@@H]3CS(=O)(=O)C[C@@H]32)o1 | -1.28%
Cc1ccc(Cl)cc1N1CCN(CC(=O)NCc2ccco2)CC1 | 7.45%
CC(Cn1cccn1)NC(=O)c1cccs1 (configuration not stated) | -9.89%
Cc1nc(CNC(=O)N2CCCC(c3ncc[nH]3)C2)sc1C (configuration not stated) | -5.05%
COc1cc2c(cc1OC)S(=O)(=O)N(Cc1ccccc1C)C2=O | 23.7%
Cc1oc(NC(=O)C(C)N2CCN(C(=O)C3CC3)CC2)c(C#N)c1C (configuration not stated) | -1.91%
Cc1cnn(CC2CCCN2Cc2noc(-c3ccccc3)n2)c1 (configuration not stated) | -9.63%
O=C(C1CCCN(C2CCOCC2)C1)N1CCc2ncccc2C1 (configuration not stated) | -4.26%
Cc1ncc2c(n1)CN(Cc1cn3ccsc3n1)CC2 | -0.474%
CCc1noc(CNc2cc3c(cc2Cl)OCCO3)n1 | 15.1%
Cc1cnc(CCNC(=O)C2CCN(S(=O)(=O)c3ccc(F)cc3)C2)s1 (configuration not stated) | 17.8%
COCCCN(Cc1cc(O)nc2ccccc12)C(=O)NC(C)C | -13.5%
CN(CCc1ccccc1)Cc1cc(C(=O)N2CCSCC2)no1 | -3.85%
O=C(COc1ccccc1NCc1ccc(F)cc1)N1CCOCC1 | -20.5%
COc1c(C2CCCN2C(=O)c2c(C)noc2C)c(C)nn1C (configuration not stated) | -8.08%
CC(=O)c1cc(CN2CCCC23CCN(c2ccccn2)CC3)cs1 | -19.2%
Cc1cccc(-n2nnnc2C(C)(C)Nc2ccccc2C)c1 | 0.855%
O=C(O)[C@@H]1CCCN1c1nccc(Nc2ccccc2)n1 | 16%
CCN(CC)C(=O)C1CCC2(CCNCC2)O1 (configuration not stated) | -12.5%
CC(C)(C)c1nc(CN2CCC(c3ccnn3CCO)CC2)no1 | -0.084%
Cn1ccnc1-c1cn(CCc2nnc(N)s2)nn1 | 43.6%

SMILES | cytotoxicity at 70.5 h
COCCNC(=O)c1cc(S(=O)(=O)N2CCCC2)cs1 | 14.3%
CCC(=O)N1CC[C@H]2[C@H](C[C@@H](Cn3cccn3)N2c2nccs2)C1 | 8.28%
O=C1CC(NCc2cnc(N3CCCC3)nc2)CN1c1ccccc1 (configuration not stated) | 1.08%
CN1CCN(CCn2cnc3c(F)cccc3c2=O)CC1 | -1.43%
CCn1cc(Cn2cc(-c3cccc(C(C)N(C)C)c3)nn2)cn1 (configuration not stated) | -6.09%
CCc1ccc(C(COC)NC(=O)c2ccc(F)c(NC(C)=O)c2)o1 (configuration not stated) | 23.6%
Cc1noc(CN2CC=C(c3c[nH]c4ncccc34)CC2)n1 | 20.4%
Cc1cnn(CCNCC(O)COc2cc(Cl)ccc2Cl)c1 (configuration not stated) | -14.6%
CCc1ccc2c(c1)C(CCNC(=O)CSC(F)(F)F)C(=O)N2 (configuration not stated) | -1.42%
OCC1(CNC2CCc3cc4c(cc32)OCCO4)CC1 (configuration not stated) | 22.1%
CCS(=O)(=O)N1CCC(OC)c2ccccc2N(CC(=O)NC)C(=O)C1 (configuration not stated) | -1.92%
CN(C)S(=O)(=O)NC(=O)CC(c1ccccc1)C(F)(F)F (configuration not stated) | -2.07%
Cc1ccc2c(n1)N(CCN(C)C)CCN(C(=O)c1cscn1)C2 | -7.14%
COc1cccc(-n2nnc(C(=O)N3CCCC(C)C3)c2C)c1 (configuration not stated) | -10.2%
COCC(=O)N1CCN(Cn2nc(C)c(Br)c2C)CC1 | -2.69%
Fc1cccc2[nH]c(CN3CCn4c(nnc4C4CC4)C3)nc12 | 1.58%
CCCS(=O)(=O)N1Cc2c(ncn2Cc2ccccc2)C[C@H]1C(=O)OC | -5.74%
COc1cc(NC(=O)c2cccc(N(C)C)c2)cc(OC)c1 | -7.19%
Cc1nn(C)cc1CN1CCCC(n2c(=O)oc3ccc(Cl)cc32)C1 (configuration not stated) | 46.8%
COC(=O)c1ccc(OC)c(Cn2cc(N)cn2)c1 | -19.2%
